Literature values, collected in patent US20220289809A1, “USE OF RELAXIN TO TREAT ATRIAL FIBRILLATION” (University of Pittsburgh - Of the Commonwealth System of …, priority 2012, published 2022).

Tested on: CHF canine model

Cc1ccc(=O)n(-c2ccccc2)c1 [Pirfenidone]
atrial CV: did not generate a significantly greater increase in atrial CV
fibrosis and AF: reverse fibrosis and attenuate AF
